Laboratory results: PubChem BioAssay (NCI)
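Grown in 96-well plates, cells were treated for 48 hours with each compound at five concentrations. Insufficient inhibition: endpoint recorded as highest concentration tested. The concentration for 50% growth inhibition is given as GI50. TGI: total growth inhibition.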

Columns and labels:
Test in all cases: NCI tumour cell line growth inhibition, 48 h
T-47D breast = test system: T-47D breast
DMS 114 small cell lung = test system: DMS 114 small cell lung
LXFL 529 NSCLC = test system: LXFL 529 NSCLC
HOP-18 NSCLC = test system: HOP-18 NSCLC
MDA-N = test system: MDA-N
XF 498 CNS = test system: XF 498 CNS
SN12K1 renal = test system: SN12K1 renal
P388/ADR leukemia = test system: P388/ADR leukemia
P388 leukemia = test system: P388 leukemia
DLD-1 colon = test system: DLD-1 colon
786-0 renal = test system: 786-0 renal

SMILES | TGI (T-47D breast) [µM] | TGI (DMS 114 small cell lung) [µM] | TGI (HOP-18 NSCLC) [µM] | TGI (MDA-N) [µM] | TGI (XF 498 CNS) [µM] | TGI (DLD-1 colon) [µM] | also measured
O=[N+]([O-])c1ccc(C=C2C(Cl)=C(Cl)C(Cl)=C2Cl)cc1 | 5.46 |  |  |  |  |  | GI50 (T-47D breast): 2.16 µM
Cc1cc(=O)[nH]c(NN2C(Cl)C(=O)C2c2cccc(O)c2)n1 (stereo unspecified) |  | 34.8 | > 100 |  |  |  | TGI (LXFL 529 NSCLC): > 100 µM
COc1ccc(C2CC(c3cccc(Nc4ccncc4)c3)=NN2c2cc(Cl)cc(Cl)c2)cc1 (stereo unspecified) | 4.43 |  |  |  |  |  | GI50 (T-47D breast): 1.96 µM
Cc1ccc2c(n1)C(=O)c1[nH]c3ccccc3c1C2=O | 17.9 |  |  |  |  |  | GI50 (T-47D breast): 0.537 µM
c1ccc(N=C2SC(=NC3CCCCC3)N(C3CCCCC3)C2=Nc2ccccc2)cc1 | > 100 |  |  | > 100 |  |  | 
CC(=O)OC1CCC2(C)C3CCC4(C)C(c5ccc(=O)oc5)CC5OC54C3CCC2(O)C1 (stereo unspecified) |  | 0.69 | 7.38 |  | 6.97 | 1.57 | TGI (SN12K1 renal): 3.7 µM; TGI (P388/ADR leukemia): > 200 µM; TGI (P388 leukemia): > 200 µM
Cc1nc(N)sc1-c1ccnc(Nc2ccc(N3CCOCC3)cc2)n1 | > 100 |  |  |  |  |  | GI50 (T-47D breast): 2.92 µM
CCC[CH2][Ge]([CH2]CCC)([CH2]CCC)[O]C(=O)CC(=O)c1ccccc1 |  | 3.32 | 22.7 |  | 23.8 | 16 | GI50 (XF 498 CNS): 11.6 µM; GI50 (DMS 114 small cell lung): 0.0424 µM; GI50 (DLD-1 colon): 0.77 µM; GI50 (LXFL 529 NSCLC): 0.325 µM; TGI (LXFL 529 NSCLC): 13.7 µM; GI50 (HOP-18 NSCLC): 10.8 µM
O=C(OC(=O)n1ccc2ccccc21)n1ccc2ccccc21 |  | > 100 | > 100 |  | > 100 | > 100 | TGI (SN12K1 renal): > 100 µM
O=NN(CCCl)C(=O)NC1CCSc2ccccc21 (stereo unspecified) |  | > 100 | > 100 |  | > 100 | > 100 | TGI (SN12K1 renal): > 100 µM; TGI (P388/ADR leukemia): > 100 µM; TGI (P388 leukemia): 82.6 µM
COc1ccccc1C1C(C(=O)O)=C(CO)Oc2cc3c(cc21)OCO3 (stereo unspecified) |  | > 100 | > 100 |  |  |  | TGI (LXFL 529 NSCLC): > 100 µM
CC1CC=CC(O)C1 (stereo unspecified) |  | > 100 | > 100 |  | > 100 | > 100 | TGI (SN12K1 renal): > 100 µM; TGI (P388/ADR leukemia): > 100 µM; TGI (P388 leukemia): > 100 µM
CC(=O)Oc1cccc2c(/C=N/NC(N)=S)ncc(C)c12 | 31.3 |  |  | 21 |  |  | 
NC(Cc1cccc([N+](=O)[O-])c1)C(=O)O (stereo unspecified) | > 100 |  |  | > 100 |  |  | TGI (786-0 renal): > 100 µM
NC(CCCCP(=O)(O)O)C(=O)O (stereo unspecified) | > 100 |  |  | > 100 |  |  | 
NNC(N)Nc1ccccc1 (stereo unspecified) | > 100 |  |  | > 100 |  |  | 
